Usually Kd stands for the free concentration of one partner at which half of the binding sites on the other are occupied at equilibrium, for simple one-to-one binding. A low value points to higher affinity.

For this experiment, the target named is T1, FLT3 D835Y (Homo sapiens, UniProt P36888, D835Y).
T1 construct: host or cells: E. coli BL21-derived host (T7 phage) or HEK-293
T1 sequence (P36888 27-993 D835Y): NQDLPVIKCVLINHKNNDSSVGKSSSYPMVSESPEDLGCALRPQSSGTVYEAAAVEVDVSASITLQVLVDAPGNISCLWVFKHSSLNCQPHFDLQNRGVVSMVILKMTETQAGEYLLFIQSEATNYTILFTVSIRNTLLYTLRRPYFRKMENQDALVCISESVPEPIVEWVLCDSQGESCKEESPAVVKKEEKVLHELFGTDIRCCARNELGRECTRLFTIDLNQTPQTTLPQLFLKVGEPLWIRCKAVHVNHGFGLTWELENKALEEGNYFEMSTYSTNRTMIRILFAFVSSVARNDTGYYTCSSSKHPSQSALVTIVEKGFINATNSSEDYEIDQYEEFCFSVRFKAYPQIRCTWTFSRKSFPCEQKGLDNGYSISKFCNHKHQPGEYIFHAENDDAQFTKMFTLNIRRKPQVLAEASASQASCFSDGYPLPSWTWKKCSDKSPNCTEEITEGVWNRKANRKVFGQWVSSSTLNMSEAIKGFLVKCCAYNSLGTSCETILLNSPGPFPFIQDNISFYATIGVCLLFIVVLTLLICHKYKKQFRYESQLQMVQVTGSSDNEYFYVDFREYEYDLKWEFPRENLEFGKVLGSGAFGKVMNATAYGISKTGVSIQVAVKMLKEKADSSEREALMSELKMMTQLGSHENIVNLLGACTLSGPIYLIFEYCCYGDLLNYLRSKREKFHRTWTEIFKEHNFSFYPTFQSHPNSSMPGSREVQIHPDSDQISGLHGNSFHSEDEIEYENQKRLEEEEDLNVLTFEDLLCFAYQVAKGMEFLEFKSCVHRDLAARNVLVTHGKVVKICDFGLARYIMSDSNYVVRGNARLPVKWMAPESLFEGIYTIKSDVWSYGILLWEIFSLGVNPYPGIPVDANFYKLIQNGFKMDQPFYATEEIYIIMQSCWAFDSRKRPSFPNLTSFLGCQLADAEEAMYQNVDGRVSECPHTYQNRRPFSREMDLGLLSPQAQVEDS
Nature of the experiment: DiscoverX KINOMEscan competition binding, FLT3 D835Y. An excerpt: Kinase binding data were obtained for various exemplary compounds prepared according to Examples 1-24 using the DiscoverX KINOMVIEscan® active site-directed competition binding site-directed assay protocol described below. […] As a result, the data report thermodynamic interaction affinities (Kd values), rather than IC50 values that are dependent on ATP concentrations. The assay uses a DNA-tagged version of the protein kinase, and an immobilized ligand bound to a solid support. Compounds that directly or indirectly prevent kinase binding to the immobilized ligand reduce the amount of kinase captured on the solid support, which is detected using an ultra-sensitive qPCR method. Affinity constants reported from the assay have been reported to be independent of the immobilized ligand used that is coupled to the solid support (See supplemental information in Fabian, M. A. et. al., (2005) Nat. Biotechnol. 23, 329-336; Wodicka, L. M. et. al., (2010) Chem. Biol. 17, 1241-1249.)
Kinase-tagged T7 phage strains were prepared in an E. coli host derived from the BL21 strain. E. coli were grown to log-phase and infected with T7 phage and incubated with shaking at 32° C. until lysis. The lysates were centrifuged and filtered to remove cell debris. The remaining kinases were produced in HEK-293 cells and subsequently tagged with DNA for qPCR detection. Streptavidin-coated magnetic beads were treated with biotinylated small molecule ligands for 30 minutes at room temperature to generate affinity resins for kinase assays. The liganded beads were blocked with excess biotin and washed with blocking buffer (SeaBlock (Pierce), 1% BSA, 0.05% Tween 20, 1 mM DTT) to remove unbound ligand and to reduce non-specific binding. Binding reactions were assembled by combining kinases, liganded affinity beads, and test compounds in 1× binding buffer (20% SeaBlock, 0.17×PBS, 0.05% Tween 20, 6 mM DTT). Test compounds were prepared as 111× stocks in 100% DMSO. Kds were determined using an 11-point 3-fold compound dilution series with three DMSO control points. All compounds for Kd measurements are distributed by acoustic transfer (non-contact dispensing) in 100% DMSO. The compounds were then diluted directly into the assays such that the final concentration of DMSO was 0.9%. All reactions were performed in polypropylene 384-well plates. Each was a final volume of 0.02 mL. The assay plates were incubated at room temperature with shaking for 1 hour and the affinity beads were washed with wash buffer (1×PBS, 0.05% Tween 20). The beads were then re-suspended in elution buffer (1×PBS, 0.05% Tween 20, 0.5 μM nonbiotinylated affinity ligand) and incubated at room temperature with shaking for 30 minutes. The kinase concentration in the eluates was measured by qPCR.
Binding constants (Kds) were calculated with a standard dose-response curve using the Hill equation. The Hill Slope was set to −1. Curves were fitted using a non-linear least square fit with the Levenberg-Marquardt algorithm.

In turn, `CC1(c2cn3c(-c4cccc(N[C@H]5CNC[C@@H]5F)n4)cnc3cn2)CC1` [Compound 1, N-((3S,4S)-4-fluoropyrrolidin-3-yl)-6-(6-(1-methylcyclopropyl)imidazo[1,2-a]pyrazin-3-yl)pyridin-2-amine] returned a dissociation constant (Kd) of 0.049 nM. This counts as picomolar. In the case of `CC1(c2cn3c(-c4cccc(N[C@@H]5CCNC5)n4)cnc3cn2)CC1` [Compound 3, (R)-6-(6-(1-methylcyclopropyl)imidazo[1,2-a]pyrazin-3-yl)-N-(pyrrolidin-3-yl)pyridin-2-amine] it was 0.053 nM. In the case of `CC1(c2cn3c(-c4cccc(N[C@H]5CNCC56CC6)n4)cnc3cn2)CC1` [Compound 5, (R)-N-(6-(6-(1-methylcyclopropyl)imidazo[1,2-a]pyrazin-3-yl)pyridin-2-yl)-5-azaspiro[2.4]heptan-7-amine] it was 0.036 nM; in that of `FC(F)(F)C1(c2cn3c(-c4cccc(N[C@@H]5CCNC5)n4)cnc3cn2)CC1` [Compound 10, (R)-N-(pyrrolidin-3-yl)-6-(6-(1-(trifluoromethyl)cyclopropyl)imidazo[1,2-a]pyrazin-3-yl)pyridin-2-amine], 0.044 nM.

`FC(F)c1cn2c(-c3cccc(N[C@H]4CNC[C@@H]4F)n3)cnc2cn1` [Compound 16, 6-(6-(difluoromethyl)imidazo[1,2-a]pyrazin-3-yl)-N-((3S,4S)-4-fluoropyrrolidin-3-yl)pyridin-2-amine]: the Kd is 0.053 nM. The Kd values of the last two compounds are within 1.5-fold of each other. Consider `FC(F)c1cn2c(-c3cccc(N[C@H]4CNCC[C@@H]4F)n3)cnc2cn1` [Compound 25, 6-(6-(difluoromethyl)imidazo[1,2-a]pyrazin-3-yl)-N-((3S,4S)-4-fluoropiperidin-3-yl)pyridin-2-amine], for which the Kd turned out to be 0.071 nM. The Kd values of the last two compounds are within 1.5-fold of each other. `CC(C)(O)c1cn2c(-c3cccc(N[C@@H]4CCCNC4)n3)cnc2cn1` [Compound 30, (R)-2-(3-(6-(piperidin-3-ylamino)pyridin-2-yl)imidazo[1,2-a]pyrazin-6-yl)propan-2-ol]: the affinity, expressed as Kd, was 0.47 nM. This Kd is about 6.6-fold higher than that of the compound before. In the case of `CC(C)(O)c1cn2c(-c3cccc(N[C@H]4CNCC[C@@H]4F)n3)cnc2cn1` [Compound 31, 2-(3-(6-(((3S,4S)-4-fluoropiperidin-3-yl)amino)pyridin-2-yl)imidazo[1,2-a]pyrazin-6-yl)propan-2-ol] it was 0.18 nM.

`FC(F)(F)COc1cn2c(-c3cccc(N[C@@H]4CCNC4)n3)cnc2cn1` [Compound 38, (R)-N-(pyrrolidin-3-yl)-6-(6-(2,2,2-trifluoroethoxy)imidazo[1,2-a]pyrazin-3-yl)pyridin-2-amine] displayed a Kd of 0.035 nM. The result for `F[C@H]1CNC[C@@H]1Nc1cccc(-c2cnc3cnc(C4CC4)cn23)n1` [Compound 50, 6-(6-cyclopropylimidazo[1,2-a]pyrazin-3-yl)-N-((3S,4S)-4-fluoropyrrolidin-3-yl)pyridin-2-amine] reads 0.044 nM; that for `Cn1cc(-c2cn3c(-c4cccc(N[C@H]5CNC[C@@H]5F)n4)cnc3cn2)cn1` [Compound 52, N-((3S,4S)-4-fluoropyrrolidin-3-yl)-6-(6-(1-methyl-1H-pyrazol-4-yl)imidazo[1,2-a]pyrazin-3-yl)pyridin-2-amine], 0.064 nM.

The record behind these values is US12612410B2 (CHILDREN'S HOSPITAL MEDICAL CENTER, priority 2020, dated 2026).
